The source made the active and inactive calls. The calls are words filed in the database; no cut-off is given here.
Key:
[1] = target: Protein smoothened (Mus musculus) (UniProt P56726); assay: Activity at Smo in mouse C3H10T1/2 cells assessed as induction of cell differentiation into osteoblast at 10 uM incubated for 6 days by alkaline phosphatase assay relative to GSA-10; type: cell-based; conditions: C3H 10T1/2
[2] = target: Protein smoothened (Mus musculus) (UniProt P56726); assay: Agonist activity at Smo in mouse C3H10T1/2 cells assessed as effect on Smo expression at 10 uM after 48 hrs by RT-PCR method relative to vehicle-treated control; type: cell-based; conditions: C3H 10T1/2
[3] = target: Protein smoothened (Mus musculus) (UniProt P56726); assay: Antagonist activity at Smo in mouse NIH/3T3 cells transfected with Gli-dependent firefly luciferase reporter assessed as inhibition of SAG-induced maximal stimulation of Gli transcription factor at 1 uM incubated for 40 hrs relative to control; type: cell-based
[4] = target: T1, Coelenterazine h 2-monooxygenase (Renilla reniformis) (UniProt P27652); assay: Induction of Renilla reniformis luciferase activity at 10 uM relative to control
T1 sequence (whole entry): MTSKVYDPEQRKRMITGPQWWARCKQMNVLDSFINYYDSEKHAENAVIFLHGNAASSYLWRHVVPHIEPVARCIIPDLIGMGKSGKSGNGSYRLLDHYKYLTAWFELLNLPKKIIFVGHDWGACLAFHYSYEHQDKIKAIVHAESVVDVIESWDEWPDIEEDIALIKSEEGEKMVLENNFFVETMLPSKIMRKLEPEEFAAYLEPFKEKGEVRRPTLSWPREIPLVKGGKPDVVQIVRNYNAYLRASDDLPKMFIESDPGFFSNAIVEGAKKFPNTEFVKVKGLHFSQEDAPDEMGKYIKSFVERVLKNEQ

[5] = target: Protein smoothened (Mus musculus) (UniProt P56726); assay: Activity at Smo in mouse C3H10T1/2 cells assessed as induction of cell differentiation into osteoblast at 0.3 uM in presence of phosphodiesterase inhibitor IBMX incubated for 6 days by alkaline phosphatase assay; type: cell-based; conditions: C3H 10T1/2
[6] = target: Protein smoothened (Mus musculus) (UniProt P56726); assay: Agonist activity at Smo in mouse C3H10T1/2 cells assessed as effect on Gli3 expression at 10 uM after 48 hrs by RT-PCR method relative to vehicle-treated control; type: cell-based; conditions: C3H 10T1/2
[7] = target: Protein smoothened (Mus musculus) (UniProt P56726); assay: Agonist activity at Smo in mouse C3H10T1/2 cells assessed as effect on Gli1 expression at 10 uM after 48 hrs by RT-PCR method relative to vehicle-treated control; type: cell-based; conditions: C3H 10T1/2
[8] = target: Protein smoothened (Mus musculus) (UniProt P56726); assay: Agonist activity at Smo in mouse C3H10T1/2 cells assessed as effect on Gli2 expression at 10 uM after 48 hrs by RT-PCR method relative to vehicle-treated control; type: cell-based; conditions: C3H 10T1/2
[9] = target: Protein smoothened (Mus musculus) (UniProt P56726); assay: Activity at Smo in mouse C3H10T1/2 cells assessed as induction of cell differentiation into osteoblast at 0.3 uM in presence of adenylate cyclase activator forskolin incubated for 6 days by alkaline phosphatase assay; type: cell-based; conditions: C3H 10T1/2
[10] = target: Protein smoothened (Mus musculus) (UniProt P56726); assay: Activity at Smo in mouse C3H10T1/2 cells assessed as induction of cell differentiation into osteoblast incubated for 6 days by alkaline phosphatase assay; type: cell-based; conditions: C3H 10T1/2
[11] = target: Protein smoothened (Mus musculus) (UniProt P56726); assay: Potency index, ratio of GSA-10 EC50 to compound EC50 for activity at Smo in mouse C3H10T1/2 cells assessed as induction of cell differentiation into osteoblast; type: cell-based; conditions: C3H 10T1/2
[12] = target: Protein smoothened (Mus musculus) (UniProt P56726); assay: Agonist activity at Smo in mouse C3H10T1/2 cells assessed as effect on Ptc1 expression at 10 uM after 48 hrs by RT-PCR method relative to vehicle-treated control; type: cell-based; conditions: C3H 10T1/2
[13] = target: Protein smoothened (Mus musculus) (UniProt P56726); assay: Agonist activity at Smo in mouse C3H10T1/2 cells assessed as effect on Gli1 expression at 1 uM after 48 hrs by RT-PCR method relative to vehicle-treated control; type: cell-based; conditions: C3H 10T1/2
[14] = target: Protein smoothened (Rattus norvegicus) (UniProt P97698); assay: Agonist activity at Smo in cerebellar granule cell precursors isolated from rat at postnatal day 8 assessed as stimulation of proliferation by [3H]-thymidine incorporation assay
Chain of Protein smoothened (Rattus norvegicus) (P97698 whole entry): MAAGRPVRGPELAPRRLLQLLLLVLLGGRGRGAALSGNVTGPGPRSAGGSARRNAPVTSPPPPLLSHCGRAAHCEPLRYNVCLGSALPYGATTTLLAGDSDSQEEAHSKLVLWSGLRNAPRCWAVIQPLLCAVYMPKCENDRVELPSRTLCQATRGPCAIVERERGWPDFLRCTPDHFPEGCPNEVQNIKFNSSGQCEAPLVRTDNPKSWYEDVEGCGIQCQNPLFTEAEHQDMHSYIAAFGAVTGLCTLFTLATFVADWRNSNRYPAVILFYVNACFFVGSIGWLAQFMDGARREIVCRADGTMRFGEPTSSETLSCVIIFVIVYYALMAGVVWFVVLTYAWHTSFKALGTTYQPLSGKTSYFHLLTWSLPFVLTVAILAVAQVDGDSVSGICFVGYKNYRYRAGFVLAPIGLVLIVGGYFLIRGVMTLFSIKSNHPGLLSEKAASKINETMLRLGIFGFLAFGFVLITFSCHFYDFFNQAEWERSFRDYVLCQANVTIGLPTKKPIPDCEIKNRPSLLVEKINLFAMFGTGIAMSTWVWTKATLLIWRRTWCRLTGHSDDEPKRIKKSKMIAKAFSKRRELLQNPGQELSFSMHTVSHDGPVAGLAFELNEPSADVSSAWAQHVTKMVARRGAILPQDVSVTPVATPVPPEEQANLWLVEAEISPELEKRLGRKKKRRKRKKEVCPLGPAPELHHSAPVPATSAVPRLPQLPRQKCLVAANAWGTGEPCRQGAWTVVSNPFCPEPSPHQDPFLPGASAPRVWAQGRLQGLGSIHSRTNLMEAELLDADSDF

[15] = target: Protein smoothened (Mus musculus) (UniProt P56726); assay: Agonist activity at Smo in mouse C3H10T1/2 cells assessed as induction of cell differentiation into osteoblast incubated for 6 days by alkaline phosphatase assay; type: cell-based; conditions: C3H 10T1/2
[16] = target: Protein smoothened (Mus musculus) (UniProt P56726); assay: Agonist activity at Smo in mouse C3H10T1/2 cells assessed as effect on Gli3 expression at 1 uM after 48 hrs by RT-PCR method relative to vehicle-treated control; type: cell-based; conditions: C3H 10T1/2
[17] = target: Protein smoothened (Mus musculus, UniProt P56726); assay: Agonist activity at Smo in mouse NIH/3T3 cells transfected with Gli-dependent firefly luciferase reporter assessed as stimulation of Gli transcription factor; type: cell-based
Chain of Protein smoothened (P56726 whole entry): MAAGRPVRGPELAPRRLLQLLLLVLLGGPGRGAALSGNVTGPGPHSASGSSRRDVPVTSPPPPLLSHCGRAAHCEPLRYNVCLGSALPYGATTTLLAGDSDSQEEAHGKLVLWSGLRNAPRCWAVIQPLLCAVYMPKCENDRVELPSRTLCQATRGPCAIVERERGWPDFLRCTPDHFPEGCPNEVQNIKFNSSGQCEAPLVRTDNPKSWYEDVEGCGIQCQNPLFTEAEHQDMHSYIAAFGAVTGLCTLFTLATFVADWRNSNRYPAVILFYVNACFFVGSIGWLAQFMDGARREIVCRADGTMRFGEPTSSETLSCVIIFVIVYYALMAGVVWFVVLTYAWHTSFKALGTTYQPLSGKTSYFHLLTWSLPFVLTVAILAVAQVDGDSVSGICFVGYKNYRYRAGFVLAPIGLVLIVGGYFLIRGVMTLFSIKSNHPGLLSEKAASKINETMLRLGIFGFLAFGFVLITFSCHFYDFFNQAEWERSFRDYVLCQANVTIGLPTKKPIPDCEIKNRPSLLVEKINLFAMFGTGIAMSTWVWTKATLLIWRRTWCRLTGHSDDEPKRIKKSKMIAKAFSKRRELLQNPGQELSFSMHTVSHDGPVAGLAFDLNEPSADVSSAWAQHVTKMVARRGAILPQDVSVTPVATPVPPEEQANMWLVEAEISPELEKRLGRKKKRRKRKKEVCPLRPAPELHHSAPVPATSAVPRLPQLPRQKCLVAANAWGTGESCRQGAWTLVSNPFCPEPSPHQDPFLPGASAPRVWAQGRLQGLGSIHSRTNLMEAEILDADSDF

[18] = target: Protein smoothened (Mus musculus) (UniProt P56726); assay: Induction of Smo translocation to primary cilium in mouse NIH/3T3 cells at 1 uM after overnight incubation by DAPI staining-based immunofluorescence assay relative to control; type: cell-based
[19] = target: Protein smoothened (Mus musculus) (UniProt P56726); assay: Agonist activity at Smo in mouse NIH/3T3 cells transfected with Gli-dependent firefly luciferase reporter assessed as stimulation of Gli transcription factor incubated for 40 hrs; type: cell-based
[20] = target: Protein smoothened (Mus musculus) (UniProt P56726); assay: Agonist activity at Smo in mouse C3H10T1/2 cells assessed as effect on Smo expression at 1 uM after 48 hrs by RT-PCR method relative to vehicle-treated control; type: cell-based; conditions: C3H 10T1/2
[21] = target: Protein smoothened (Mus musculus) (UniProt P56726); assay: Agonist activity at Smo in mouse C3H10T1/2 cells assessed as effect on Gli2 expression at 1 uM after 48 hrs by RT-PCR method relative to vehicle-treated control; type: cell-based; conditions: C3H 10T1/2
[22] = target: Protein smoothened (Mus musculus) (UniProt P56726); assay: Agonist activity at Smo in mouse C3H10T1/2 cells assessed as effect on Ptc1 expression at 1 uM after 48 hrs by RT-PCR method relative to vehicle-treated control; type: cell-based; conditions: C3H 10T1/2
[23] = target: Protein smoothened (Mus musculus) (UniProt P56726); assay: Agonist activity at Smo in mouse C3H10T1/2 cells assessed as induction of cell differentiation into osteoblast at 10 uM incubated for 6 days by alkaline phosphatase assay relative to GSA-10; type: cell-based; conditions: C3H 10T1/2
[24] = target: Protein smoothened (Mus musculus) (UniProt P56726); assay: Activity at Smo in mouse C3H10T1/2 cells assessed as induction of cell differentiation into osteoblast at 1 uM in presence of phosphodiesterase inhibitor IBMX incubated for 6 days by alkaline phosphatase assay; type: cell-based; conditions: C3H 10T1/2
[25] = target: Protein smoothened (Mus musculus) (UniProt P56726); assay: Activity at Smo in mouse C3H10T1/2 cells assessed as induction of cell differentiation into osteoblast at 1 uM in presence of adenylate cyclase activator forskolin incubated for 6 days by alkaline phosphatase assay; type: cell-based; conditions: C3H 10T1/2

Chain of Protein smoothened (Mus musculus) (P56726 whole entry): as above

CCCOC(=O)c1ccc(NC(=O)c2c(O)c3cc(F)ccc3n(CCC)c2=O)cc1
max activation [1]: 98%

CCCOC(=O)c1ccc(NC(=O)c2c(O)c3ccccc3n(C)c2=O)cc1
max activation [1]: 1%

CCCCCn1c(=O)c(C(=O)Nc2ccc(C(=O)OCCC)cc2)c(O)c2ccccc21
max activation [1]: 138%

C=CCn1c(=O)c(C(=O)Nc2ccc(C(=O)OCCC)cc2)c(O)c2ccccc21
max activation [1]: 22%

CCCCCCn1c(=O)c(C(=O)Nc2cccc(C(=O)OCC)c2)c(O)c2ccccc21
max activation [1]: 1.7%

CCCCCc1nc2ccccc2c(=O)n1NC(=O)c1c(O)c2ccccc2n(CC)c1=O
max activation [1]: 5%

CCCOC(=O)c1ccc(NC(=O)c2c(O)c3cc(Cl)ccc3n(CCC)c2=O)cc1
max activation [1]: 41%

CCCCCn1c(=O)c(C(=O)Nc2ccc([N+](=O)[O-])cc2O)c(O)c2ccccc21
max activation [1]: 3%

CCCCCCn1c(=O)c(C(=O)Nc2ccc(C(=O)OCc3ccccc3)cc2)c(O)c2ccccc21
max activation [1]: 47%

CCCOC(=O)c1ccc(NC(=O)c2c(O)c3ccccc3n(CCC)c2=O)cc1
max activation [1]: 105%

CCCOC(=O)c1ccc(NC(=O)c2c(O)c3cc(OC)c(OC)cc3n(CCC)c2=O)cc1
fold change (FC) [2]: 0.81 | inhibition [3]: 54% | Activity [4]: < 20% | Activity [5]: Active | fold change (FC) [6]: 0.86 | fold change (FC) [7]: 0.04 | fold change (FC) [8]: 1.49 | Activity [9]: Active | Activity [10]: Dose-dependent effect | Ratio EC50 [11]: 3 | max activation [1]: 138% | fold change (FC) [12]: 0.27

CCCCCCn1c(=O)c(C(=O)Nc2ccc(C(=O)OC(C)(C)C)cc2)c(O)c2ccccc21
max activation [1]: 69%

CCCOC(=O)c1ccc(NC(=O)c2c(O)c3ccccc3n(Cc3ccccc3)c2=O)cc1
max activation [1]: 7%

CCCCCCn1c(=O)c(C(=O)Nc2cc(C)cc(C(=O)OCCC)c2)c(O)c2ccccc21
max activation [1]: 3%

CCCCCCn1c(=O)c(C(=O)Nc2ccc(C(=O)OC(C)C)cc2)c(O)c2ccccc21
max activation [1]: 33%

CCCCCCn1c(=O)c(C(=O)Nc2ccc(C(=O)OCCCC)cc2)c(O)c2ccccc21
max activation [1]: 88%

CCOC(=O)c1ccc(NC(=O)c2c(O)c3ccccc3n(Cc3ccccc3)c2=O)cc1
max activation [1]: 4%

CCCCCn1c(=O)c(C(=O)Nc2ccc([N+](=O)[O-])cc2)c(O)c2ccccc21
max activation [1]: 5%

CCCOC(=O)c1ccc(NC(=O)c2c(O)c3cc(C)ccc3n(CCC)c2=O)cc1
max activation [1]: 85%

CCCCCCn1c(=O)c(C(=O)Nc2ccc(C(=O)NCCCC)cc2)c(O)c2ccccc21
max activation [1]: 92%

CCCCCCn1c(=O)c(C(=O)Nc2ccc(C(=O)OCCC)c(Cl)c2)c(O)c2ccccc21
max activation [1]: 11%

CN[C@H]1CC[C@H](N(Cc2cccc(-c3ccncc3)c2)C(=O)c2sc3ccccc3c2Cl)CC1
fold change (FC) [13]: 7.83 | Activity [4]: < 20% | Activity [14]: Active | Activity [15]: Dose-dependent effect | fold change (FC) [16]: 0.72 | EC50 [17]: 30 nM | Activity [18]: > 60% | Activity [19]: Active | fold change (FC) [20]: 0.9 | fold change (FC) [21]: 1.24 | fold change (FC) [22]: 5.32 | max activation [23]: 75%

CCCCCCn1c(=O)c(C(=O)Nc2ccc(C(=O)NCCC)cc2)c(O)c2ccccc21
max activation [1]: 1.6%

CCCCCn1c(=O)c(C(=O)Nc2ccc(C(=O)OCCCC)cc2)c(O)c2ccccc21
max activation [1]: 123%

CCCCCCn1c(=O)c(C(=O)Nc2ccc(C(=O)O)cc2)c(O)c2ccccc21
fold change (FC) [2]: 0.92 | inhibition [3]: 26% | Activity [4]: < 20% | Activity [5]: Active | fold change (FC) [6]: 0.98 | fold change (FC) [7]: 0.05 | fold change (FC) [8]: 1.63 | Activity [9]: Active | Activity [10]: Dose-dependent effect | Ratio EC50 [11]: 2 | max activation [1]: 137% | fold change (FC) [12]: 0.26

CCCCCCn1c(=O)c(C(=O)Nc2cccc(C(=O)OCCC)c2C(F)(F)F)c(O)c2ccccc21
max activation [1]: 1.4%

CCCCCCn1c(=O)c(C(=O)Nc2cccc(C(=O)OC(C)(C)C)c2)c(O)c2ccccc21
max activation [1]: 1.3%

CCCCCCn1c(=O)c(C(=O)Nc2ncc([N+](=O)[O-])s2)c(O)c2ccccc21
max activation [1]: 3%

CCCCCCn1c(=O)c(C(=O)Nc2ccc(C(=O)OCC)cc2)c(O)c2ccccc21
max activation [1]: 62%

c1ccc2c(Oc3nc(Nc4ccc(N5CCOCC5)cc4)c4ncn(C5CCCCC5)c4n3)cccc2c1
max activation [1]: 78%

CCCCn1c(=O)c(C(=O)Nc2ccc(C(=O)OCCC)cc2)c(O)c2ccccc21
max activation [1]: 135%

CCCOC(=O)c1ccc(NC(=O)c2c(O)c3cccc4c3n(c2=O)CCC4)cc1
max activation [1]: 38%

CCCCCCn1c(=O)c(C(=O)Nc2nc(CC(=O)OCC)cs2)c(O)c2ccccc21
max activation [1]: 3%

CCCCCCn1c(=O)c(C(=O)Nc2ccc(OCC)cc2)c(O)c2ccccc21
max activation [1]: 1%

CCCCCCn1c(=O)c(C(=O)Nc2ccc(C(N)=O)cc2)c(O)c2ccccc21
max activation [1]: 1%

CCCCCCn1c(=O)c(C(=O)Nc2cccc(C(=O)OCCC)c2)c(O)c2ccccc21
max activation [1]: 2%

CCCCCn1c(=O)c(C(=O)Nc2ccc(C(=O)OCC)cc2)c(O)c2ccccc21
max activation [1]: 76%

CCCCCCn1c(=O)c(C(=O)Nc2ccc(C(=O)OCCC)cc2)c(O)c2ccccc21
fold change (FC) [2]: 0.8 | inhibition [3]: 31% | Activity [4]: < 20% | fold change (FC) [6]: 0.85 | Activity [24]: Active | fold change (FC) [7]: 0.05 | fold change (FC) [8]: 1.35 | Activity [25]: Active | Activity [10]: Dose-dependent effect | fold change (FC) [12]: 0.33

Source: ChEMBL document CHEMBL3860037, “Design, synthesis and biological characterization of a new class of osteogenic (1H)-quinolone derivatives” (Eur J Med Chem, 2016)
